molecular target: T1, Androgen Receptor (AR) (Homo sapiens, UniProt P10275, T878A); assay: LNCaP Androgen Receptor Down-Regulation Cell Assay; format: cell-based; details: LNCaP prostate carcinoma cell line; 20-22 hours incubation; immunofluorescence; 50% reduction of the AR signal
T1 construct: cell based immuno-fluorescence assay using the LNCaP prostate epithelial cell line; host or cells: LNCaP clone FGC prostate carcinoma cells
T1 sequence (P10275 1-920 T878A): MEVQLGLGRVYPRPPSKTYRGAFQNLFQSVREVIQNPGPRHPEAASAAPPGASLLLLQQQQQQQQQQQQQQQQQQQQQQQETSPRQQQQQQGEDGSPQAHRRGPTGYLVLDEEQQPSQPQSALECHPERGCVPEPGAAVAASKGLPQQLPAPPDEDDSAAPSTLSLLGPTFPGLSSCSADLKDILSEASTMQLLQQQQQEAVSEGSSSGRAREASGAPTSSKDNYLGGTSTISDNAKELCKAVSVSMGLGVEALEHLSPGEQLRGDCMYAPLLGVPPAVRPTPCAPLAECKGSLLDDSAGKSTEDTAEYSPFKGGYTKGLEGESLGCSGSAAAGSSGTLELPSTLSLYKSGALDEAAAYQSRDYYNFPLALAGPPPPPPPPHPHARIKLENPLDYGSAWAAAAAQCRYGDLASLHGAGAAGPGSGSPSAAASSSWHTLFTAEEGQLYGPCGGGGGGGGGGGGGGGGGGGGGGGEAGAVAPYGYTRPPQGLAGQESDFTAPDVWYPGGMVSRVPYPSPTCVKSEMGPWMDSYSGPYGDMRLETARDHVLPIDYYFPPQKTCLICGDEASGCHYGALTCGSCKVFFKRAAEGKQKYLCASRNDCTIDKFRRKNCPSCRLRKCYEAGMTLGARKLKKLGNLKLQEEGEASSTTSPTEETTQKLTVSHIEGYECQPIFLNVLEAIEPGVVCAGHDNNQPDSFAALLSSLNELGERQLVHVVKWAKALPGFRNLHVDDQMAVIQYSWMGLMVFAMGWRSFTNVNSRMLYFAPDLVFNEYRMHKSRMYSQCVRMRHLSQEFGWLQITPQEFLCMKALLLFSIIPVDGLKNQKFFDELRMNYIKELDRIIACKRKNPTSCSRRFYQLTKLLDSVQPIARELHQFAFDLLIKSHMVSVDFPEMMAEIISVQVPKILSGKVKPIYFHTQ
Description: The ability of compounds to reduce Androgen Receptor (AR) numbers was assessed in a cell based immuno-fluorescence assay using the LNCaP prostate epithelial cell line.
This immunofluorescence end point assay measures the ability of a test compound to down-regulate and reduce measured levels of the AR in the LNCaP prostate carcinoma cell line (LNCaP clone FGC (CRL-1740) obtained from the American Type Culture Collection (ATCC)).
LNCaP cells were cultured in Growth Medium (phenol red free Roswell Park Memorial Institute (RPMI) 1640 (Invitrogen Code no. 11835-063) containing 2 mM L-Glutamine (Invitrogen Code no. 25030-024) and 1% (v/v) Penicillin/Streptomycin (10000 units/ml Penicillin and 10000 μg/ml of Streptomycin utilising penicillin G (sodium salt) and streptomycin sulphate: prepared in normal saline, Invitrogen Code no. 15140122) and 10% (v/v) foetal bovine serum (FBS)) in a 5% CO2 air incubator at 37° C. Cells for assay were harvested from T175 stock flasks by washing once in PBS (phosphate buffered saline, pH 7.4) (Invitrogen Code no. 14190-094) and harvested using 5 mls of 1× Trypsin/ethylaminediaminetetraacetic acid (EDTA) (10× Trypsin-EDTA, 5.0 g/L Trypsin, 2.0 g/L of EDTA•4Na and 8.5 g/L of NaCl, without Phenol Red, Invitrogen Code no. 15400-054) diluted in PBS solution. A 5 ml volume of Growth Medium was added to each flask (as above except that 5% (v/v) charcoal stripped FBS (HyClone Code no. SH30068.03) was included instead of 10% (v/v) FBS). Cells were syringed at least twice using a sterile 18G×1.5″ (1.2×40 mm) broad gauge needle and cell density was measured using a haemocytometer. Cells were further diluted in Growth Medium plus 5% (v/v) charcoal stripped FBS and seeded at a density of 6.5×10^3 cells per well (in 90 ul) into transparent, black, tissue culture treated 96 well plates (Packard, No. 6005182).
Test data reported herein was generated using two different compounds preparation and dosing methods. In method (1) a 10 mM compound stock solution in 100% (v/v) DMSO was serially diluted in 4-fold steps in 100% (v/v) DMSO using a Thermo Scientific Matrix SerialMate. The diluted compounds were then further diluted 1 in 30 in assay media using a Thermo Scientific Matrix PlateMate and a 10 μl aliquot of this dilution was dosed to cells manually using a multi-channel pipette. In method (2) starting with a 10 mM compound stock solution, the Labcyte Echo 550 was used to generate a compound concentration response set diluted in 30 μl of assay media. The Echo 550 is a liquid handler that uses acoustic technology to perform direct microplate-to-microplate transfers of DMSO compound solutions. The system can be programmed to transfer volumes as low as […] in multiple increments between microplates and in so doing generates a serial dilution of compound which is then back-filled to normalise the DMSO is concentration across the dilution range. A 10 μl volume of diluted compound is then dosed to cells using a Thermo Scientific Matrix PlateMate.
Plates were incubated overnight at 37° C., 5% CO2. Wells were then dosed with compound prepared by one of the 2 methods above and further incubated for 20-22 hours at 37° C., 5% CO2. Plates were fixed by the addition of 20 μl of 10% (v/v) formaldehyde solution (in PBS) to each well (final formaldehyde conc.=1.67% (v/v)) and left at room temperature for 10 mins. This fixative solution was removed and cells were washed with 250 μl of PBS/0.05% (v/v) Tween 20 (PBST) using an automated plate washer. This process was then repeated twice more.
Immunostaining was performed at room temperature. Cells were permeabilised by the addition of 35 μl of PBS containing 0.5% Tween 20 and incubated for 1 hour at room temperature. Permeabilisation solution was removed and cells were washed with 250 μl of PBST using an automated plate washer. This process was then repeated twice more. […]

Which IC50 does the source give for `CCN1CCN(CCCOc2ccc(C3CCN(c4ccc5nnc(C(F)(F)F)n5n4)CC3)cc2)CC1=O` [Example 15, 1-ethyl-4-[3-(4-{1-[3-(trifluoromethyl)[1,2,4]triazolo[4,3-b]pyridazin-6-yl]piperidin-4-yl}phenoxy)propyl]piperazin-2-one] here?
Its IC50 is 240 nM.

For `CC(C)N1CCN(CCCOc2ccc(C3CCN(c4ccc5nnc(C(F)(F)F)n5n4)CC3)cc2)CC1=O` [Example 16, 1-(1-methylethyl)-4-[3-(4-{1-[3-(trifluoromethyl)[1,2,4]triazolo[4,3-b]pyridazin-6-yl]piperidin-4-yl}phenoxy)propyl]piperazin-2-one], which IC50 is on record?
The IC50 was 610 nM.

For `COCCN1CCN(CCCOc2ccc(C3CCN(c4ccc5nnc(C(F)(F)F)n5n4)CC3)cc2)CC1=O` [Example 17, 1-(2-methoxyethyl)-4-[3-(4-{1-[3-(trifluoromethyl)[1,2,4]triazolo[4,3-b]pyridazin-6-yl]piperidin-4-yl}phenoxy)propyl]piperazin-2-one], which IC50 is on record?
The IC50 was 530 nM.

Which IC50 does the source give for `CCN1CCN(CCOc2ccc(C3CCN(c4ccc5nnc(C(F)(F)F)n5n4)CC3)cc2)CC1=O` [Example 18, 1-ethyl-4-[2-(4-{1-[3-(trifluoromethyl)[1,2,4]triazolo[4,3-b]pyridazin-6-yl]piperidin-4-yl}phenoxy)ethyl]piperazin-2-one] here?
The IC50 was 310 nM.

`CC(C)N1CCN(CCOc2ccc(C3CCN(c4ccc5nnc(C(F)(F)F)n5n4)CC3)cc2)CC1=O` [Example 19, 1-(1-methylethyl)-4-[2-(4-{1-[3-(trifluoromethyl)[1,2,4]triazolo[4,3-b]pyridazin-6-yl]piperidin-4-yl}phenoxy)ethyl]piperazin-2-one] was tested. Which IC50 did it give?
The IC50 was 710 nM.

How did the IC50 turn out when `COCCN1CCN(CCOc2ccc(C3CCN(c4ccc5nnc(C(F)(F)F)n5n4)CC3)cc2)CC1=O` [Example 20, 1-(2-methoxyethyl)-4-[2-(4-{1-[3-(trifluoromethyl)[1,2,4]triazolo[4,3-b]pyridazin-6-yl]piperidin-4-yl}phenoxy)ethyl]piperazin-2-one] was run?
Its IC50 is 570 nM.

For `O=C(CO)N1CCN(CCOc2ccc(C3CCN(c4ccc5nnc(C(F)(F)F)n5n4)CC3)cc2)CC1` [Example 21, 2-oxo-2-{4-[2-(4-{1-[3-(trifluoromethyl)[1,2,4]triazolo[4,3-b]pyridazin-6-yl]piperidin-4-yl}phenoxy)ethyl]piperazin-1-yl]ethanol], which IC50 is on record?
The IC50 was 1800 nM.

For `COCC(=O)N1CCN(CCOc2ccc(C3CCN(c4ccc5nnc(C(F)(F)F)n5n4)CC3)cc2)CC1` [Example 22, 6-[4-(4-{2-[4-(methoxyacetyl)piperazin-1-yl]ethoxy}phenyl)piperidin-1-yl]-3-(trifluoromethyl)[1,2,4]triazolo[4,3-b]pyridazine], which IC50 is on record?
The IC50 was 1500 nM.

`C[C@H](O)C(=O)N1CCN(CCOc2ccc(C3CCN(c4ccc5nnc(C(F)(F)F)n5n4)CC3)cc2)CC1` [Example 23, (2S)-1-oxo-1-{4-[2-(4-{1-[3-(trifluoromethyl)[1,2,4]triazolo[4,3-b]pyridazin-6-yl]piperidin-4-yl}phenoxy)ethyl]piperazin-1-yl}propan-2-ol] was tested. Which IC50 did it give?
Its IC50 is 900 nM.

How did the IC50 turn out when `C[C@@H](O)C(=O)N1CCN(CCOc2ccc(C3CCN(c4ccc5nnc(C(F)(F)F)n5n4)CC3)cc2)CC1` [Example 24, (2R)-1-oxo-1-{4-[2-(4-{1-[3-(trifluoromethyl)[1,2,4]triazolo[4,3-b]pyridazin-6-yl]piperidin-4-yl}phenoxy)ethyl]piperazin-1-yl}propan-2-ol] was run?
The IC50 was 1700 nM.

`CO[C@@H](C)C(=O)N1CCN(CCOc2ccc(C3CCN(c4ccc5nnc(C(F)(F)F)n5n4)CC3)cc2)CC1` [Example 25, 6-{4-[4-(2-{4-[(2S)-2-methoxypropanoyl]piperazin-1-yl}ethoxy)phenyl]piperidin-1-yl}-3-(trifluoromethyl)[1,2,4]triazolo[4,3-b]pyridazine] was tested. Which IC50 did it give?
The IC50 was 1200 nM.

`CC(=O)N1CCN(C[C@@H](C)Oc2ccc(C3CCN(c4ccc5nnc(C(F)(F)F)n5n4)CC3)cc2)CC1` [Example 26, 6-(4-{4-[(1R)-2-(4-acetylpiperazin-1-yl)-1-methylethoxy]phenyl}piperidin-1-yl)-3-(trifluoromethyl)[1,2,4]triazolo[4,3-b]pyridazine] was tested. Which IC50 did it give?
The IC50 was 160 nM.

For `CC(=O)N1CCN(C[C@H](C)Oc2ccc(C3CCN(c4ccc5nnc(C(F)(F)F)n5n4)CC3)cc2)CC1` [Example 27, 6-(4-{4-[(1S)-2-(4-acetylpiperazin-1-yl)-1-methylethoxy]phenyl}piperidin-1-yl)-3-(trifluoromethyl) [1,2,4]triazolo[4,3-b]pyridazine], which IC50 is on record?
Its IC50 is 880 nM.

How did the IC50 turn out when `COC[C@H](CN1CCN(C(C)=O)CC1)Oc1ccc(C2CCN(c3ccc4nnc(C(F)(F)F)n4n3)CC2)cc1` [Example 28, 6-(4-{4-[(1S)-2-(4-acetylpiperazin-1-yl)-1-(methoxymethyl)ethoxy]phenyl}piperidin-1-yl)-3-(trifluoromethyl)[1,2,4]triazolo[4,3-b]pyridazine] was run?
The IC50 was 400 nM.

With `COC[C@@H](CN1CCN(C(C)=O)CC1)Oc1ccc(C2CCN(c3ccc4nnc(C(F)(F)F)n4n3)CC2)cc1` [Example 29, 6-(4-{4-[(1R)-2-(4-acetylpiperazin-1-yl)-1-(methoxymethyl)ethoxy]phenyl}piperidin-1-yl)-3-(trifluoromethyl)[1,2,4]triazolo[4,3-b]pyridazine] as the compound, how does the IC50 read?
The IC50 was 490 nM.

With `CC(=O)N1CCN(CCOc2ccc(C3(O)CCN(c4ccc5nnc(C(F)(F)F)n5n4)CC3)c(C)c2)CC1` [Example 30, 4-{4-[2-(4-acetylpiperazin-1-yl)ethoxy]-2-methylphenyl}-1-[3-(trifluoromethyl)[1,2,4]-triazolo[4,3-b]pyridazin-6-yl]piperidin-4-ol] as the compound, how does the IC50 read?
Its IC50 is 210 nM.

How did the IC50 turn out when `Cc1cc(OCCN2CCN(C)C(=O)C2)ccc1C1(O)CCN(c2ccc3nnc(C(F)(F)F)n3n2)CC1` [Example 31, 4-[2-(4-{4-hydroxy-1-[3-(trifluoromethyl)[1,2,4]-triazolo[4,3-b]pyridazin-6-yl]piperidin-4-yl}-3-methylphenoxy)ethyl]-1-methylpiperazin-2-one] was run?
Its IC50 is 260 nM.
